Source: publication PMC8869984, “Multifunctional Silver(I) Complexes with Metronidazole Drug Reveal Antimicrobial Properties and Antitumor Activity against Human Hepatoma and Colorectal Adenocarcinoma Cells” (Cancers, 2022)
In brackets after ≈: the same amount, converted by molar mass. Read-outs that look alike come from different tables or passages of the source.

What was measured:
[1] = test system: S. epidermidis ATCC 12228; experiment: micro-dilution broth method (MIC, MBC); type: cell-based, Staphylococcus epidermidis
S. aureus ATCC 25923 = experiment: micro-dilution broth method (MIC, MBC); type: cell-based, Staphylococcus aureus
A. israeli ATCC 10049 = experiment: micro-dilution broth method (MIC, MBC); type: cell-based, Actinomyces israelii
E. faecalis ATCC 29212 = experiment: micro-dilution broth method (MIC, MBC); type: cell-based, Enterococcus faecalis
[2] = test system: S. typhimurium ATCC 14028; experiment: micro-dilution broth method (MIC, MBC); type: cell-based, Salmonella Typhimurium
B. fragilis ATCC 10240 = experiment: micro-dilution broth method (MIC, MBC); type: cell-based, Bacteroides fragilis
HepG2 cells [3] = experiment: MTT assay (mitochondrial activity), 72 h exposure; type: cell-based, human
Description: (§1) The human hepatoma (HepG2) and colorectal adenocarcinoma (Caco-2) cells were purchased from the American Type Culture Collection: ATCC HB-8065 and ATCC HTB-37, respectively. These cells were cultured in Minimum Essential Medium Eagle (MEME) (ATCC). The murine fibroblasts cell line (Balb/c 3T3 clone A31) (gift from the Department of Swine Diseases of the National Veterinary Research Institute in Pulawy) was cultured in Dulbecco’s Modified Eagle Medium (DMEM) (ATCC). The media were supplemented with 10% BCS (Balb/c 3T3), 10% FBS (HepG2), 20% FBS (Caco-2), 1% L-glutamine, 1% antibiotic solution. The cells were maintained in 75 cm^2 cell culture flasks (NUNC) in a humidified incubator at 37 °C in an atmosphere of 5% CO2. The medium was refreshed every two or three days, and the cells were trypsinized by 0.25% trypsin–0.02% EDTA after reaching 70–80% confluence. Single cell suspensions were prepared and adjusted to a density of 2 × 10^5 cell/mL^−1 (HepG2), 1 × 10^5 cell/mL^−1 (Caco-2) and 5 × 10^4 cell/mL^−1 (Balb/c 3T3). The cell suspension was transferred to 96-well plates (100 µL/well) and incubated for 24 h before the exposure to the studied compounds. Stock solutions of ligands and metal complexes were prepared in sterile water and diluted with culture medium to obtain a concentration range from 0.1 to 10 µM. The final concentration of sterile water was 0.1% in the medium. […] As a negative control, cultured cells were grown in the absence of studied compounds. Each concentration was tested in six replicates in three independent experiments. Cytotoxicity was assessed after 72 h of exposure of the cells to compounds. The medium was not changed during the incubation time.
The metabolic activity of living cells was assessed by the measurement of the activity of dehydrogenases. […] The plate was shaken for 15 min at room temperature and transferred to a microplate reader Synergy HTX multi-mode reader (BioTek® Instruments Inc., Winooski, VT, USA) to measure the absorbance at 570 nm, using a blank as a reference. Cytotoxicity was expressed as a percentage of the negative control. […]

P. aeruginosa ATCC 9027 = experiment: micro-dilution broth method (MIC, MBC); type: cell-based, Pseudomonas aeruginosa
P. intermedia ATCC 25611 = experiment: micro-dilution broth method (MIC, MBC); type: cell-based
E. coli ATCC 25922 = experiment: micro-dilution broth method (MIC, MBC); type: cell-based, Escherichia coli
M. luteus ATCC 10240 = experiment: micro-dilution broth method (MIC, MBC); type: cell-based, Micrococcus luteus
HepG2 cells [4] = experiment: NRU assay (lysosomal activity), 72 h exposure; type: cell-based, human
Description: as §1
This method is based on staining living cells with neutral red, which readily diffuses through the plasma membrane and accumulates in lysosomes. […] After 10 min of shaking, the absorbance of the dissolved NR was measured using a Synergy HTX multi-mode reader (BioTek® Instruments Inc., Winooski, VT, USA) at 540 nm using a blank as a reference. Cytotoxicity was expressed as a percentage of the negative control. […]

V. parvula ATCC 10790 = experiment: micro-dilution broth method (MIC, MBC); type: cell-based, Veillonella parvula
B. cereus ATCC 10876 = experiment: micro-dilution broth method (MIC, MBC); type: cell-based, Bacillus cereus
[5] = S. epidermidis ATCC 12228, value in brackets
[6] = S. aureus ATCC 25923, value in brackets
[7] = A. israeli ATCC 10049, value in brackets
[8] = E. faecalis ATCC 29212, value in brackets
[9] = S. typhimurium ATCC 14028, value in brackets
[10] = B. fragilis ATCC 10240, value in brackets
[11] = P. aeruginosa ATCC 9027, value in brackets
[12] = P. intermedia ATCC 25611, value in brackets
[13] = E. coli ATCC 25922, value in brackets
[14] = M. luteus ATCC 10240, value in brackets
[15] = V. parvula ATCC 10790, value in brackets
[16] = B. cereus ATCC 10876, value in brackets

## Cc1ncc([N+](=O)[O-])n1CCO [MTZ, 2-Methyl-5-nitroimidazole-1-ethanol]
[1]; [5]
  MBC: 2.93 µM/mL
  MIC: 2.93 µM/mL
[1]; Staphylococcus epidermidis, ATCC12228, S. epidermidis ATCC 12228, read-out: MBC
  MBC: 500 µg/mL (≈ 2.92 mM)
[1]; Staphylococcus epidermidis, ATCC12228, S. epidermidis ATCC 12228, read-out: MIC
  MIC: 500 µg/mL (≈ 2.92 mM)
S. aureus ATCC 25923; [6]
  MBC: > 5.85 µM/mL
  MIC: > 5.85 µM/mL
S. aureus ATCC 25923; Staphylococcus aureus, ATCC25923, S. aureus ATCC 25923, read-out: MBC
  MBC: > 1000 µg/mL
S. aureus ATCC 25923; Staphylococcus aureus, ATCC25923, S. aureus ATCC 25923, read-out: MIC
  MIC: > 1000 µg/mL
A. israeli ATCC 10049; [7]
  MBC: > 5.85 µM/mL
  MIC: > 5.85 µM/mL
A. israeli ATCC 10049; Actinomyces israelii, ATCC10049, A. israeli ATCC 10049, read-out: MBC
  MBC: > 1000 µg/mL
A. israeli ATCC 10049; Actinomyces israelii, ATCC10049, A. israeli ATCC 10049, read-out: MIC
  MIC: > 1000 µg/mL
E. faecalis ATCC 29212; [8]
  MBC: > 5.85 µM/mL
  MIC: > 5.85 µM/mL
E. faecalis ATCC 29212; Enterococcus faecalis, ATCC29212, E. faecalis ATCC 29212, read-out: MBC
  MBC: > 1000 µg/mL
E. faecalis ATCC 29212; Enterococcus faecalis, ATCC29212, E. faecalis ATCC 29212, read-out: MIC
  MIC: > 1000 µg/mL
[2]; [9]
  MBC: > 5.85 µM/mL
  MIC: > 5.85 µM/mL
[2]; Salmonella enterica, S. typhimurium ATCC 14028, read-out: MBC
  MBC: > 1000 µg/mL
[2]; Salmonella enterica, S. typhimurium ATCC 14028, read-out: MIC
  MIC: > 1000 µg/mL
B. fragilis ATCC 10240; [10]
  MBC: 0.003 µM/mL
  MIC: 0.003 µM/mL
B. fragilis ATCC 10240; Bacteroides fragilis, ATCC10240, B. fragilis ATCC 10240, read-out: MBC
  MBC: 0.49 µg/mL (≈ 0.00286 mM)
B. fragilis ATCC 10240; Bacteroides fragilis, ATCC10240, B. fragilis ATCC 10240, read-out: MIC
  MIC: 0.49 µg/mL (≈ 0.00286 mM)
HepG2 cells [3]; Homo sapiens, mean ± SD, n = 3
  IC50: > 10 µM
P. aeruginosa ATCC 9027; [11]
  MBC: > 5.85 µM/mL
  MIC: > 5.85 µM/mL
P. aeruginosa ATCC 9027; Pseudomonas aeruginosa, ATCC9027, P. aeruginosa ATCC 9027, read-out: MBC
  MBC: > 1000 µg/mL
P. aeruginosa ATCC 9027; Pseudomonas aeruginosa, ATCC9027, P. aeruginosa ATCC 9027, read-out: MIC
  MIC: > 1000 µg/mL
P. intermedia ATCC 25611; [12]
  MBC: > 5.85 µM/mL
  MIC: 5.85 µM/mL
P. intermedia ATCC 25611; Prevotella intermedia, ATCC25611, P. intermedia ATCC 25611, read-out: MBC
  MBC: > 1000 µg/mL
P. intermedia ATCC 25611; Prevotella intermedia, ATCC25611, P. intermedia ATCC 25611, read-out: MIC
  MIC: 1000 µg/mL (≈ 5.84 mM)
E. coli ATCC 25922; [13]
  MBC: > 5.85 µM/mL
  MIC: > 5.85 µM/mL
E. coli ATCC 25922; Escherichia coli, ATCC25922, E. coli ATCC 25922, read-out: MBC
  MBC: > 1000 µg/mL
E. coli ATCC 25922; Escherichia coli, ATCC25922, E. coli ATCC 25922, read-out: MIC
  MIC: > 1000 µg/mL
M. luteus ATCC 10240; [14]
  MBC: > 5.85 µM/mL
  MIC: 5.85 µM/mL
M. luteus ATCC 10240; Micrococcus luteus, ATCC10240, M. luteus ATCC 10240, read-out: MBC
  MBC: > 1000 µg/mL
M. luteus ATCC 10240; Micrococcus luteus, ATCC10240, M. luteus ATCC 10240, read-out: MIC
  MIC: 1000 µg/mL (≈ 5.84 mM)
HepG2 cells [4]; Homo sapiens, mean ± SD, n = 3
  IC50: > 10 µM
V. parvula ATCC 10790; [15]
  MBC: 0.01 µM/mL
  MIC: 0.01 µM/mL
V. parvula ATCC 10790; Veillonella parvula, ATCC10790
  MBC: 1.95 µg/mL (≈ 0.0114 mM)
  MIC: 1.95 µg/mL (≈ 0.0114 mM)
B. cereus ATCC 10876; [16]
  MBC: > 5.85 µM/mL
  MIC: 2.93 µM/mL
B. cereus ATCC 10876; Bacillus cereus, ATCC10876, B. cereus ATCC 10876, read-out: MBC
  MBC: > 1000 µg/mL
B. cereus ATCC 10876; Bacillus cereus, ATCC10876, B. cereus ATCC 10876, read-out: MIC
  MIC: 500 µg/mL (≈ 2.92 mM)

## Cc1ncc([N+](=O)[O-])n1CCO.Cc1ncc([N+](=O)[O-])n1CCO.Cc1ncc([N+](=O)[O-])n1CCO.Cc1ncc([N+](=O)[O-])n1CCO.O=S(=O)([O-])[O-].[Ag+].[Ag+] [[Ag(MTZ)2]2SO4]
[1]; S. epidermidis ATCC 12228
  MBC: 15.6 µg/mL
  MIC: 7.8 µg/mL
[1]; [5]
  MBC: 0.014 µM/mL
  MIC: 0.007 µM/mL
S. aureus ATCC 25923; S. aureus ATCC 25923
  MBC: 15.6 µg/mL
  MIC: 15.6 µg/mL
S. aureus ATCC 25923; [6]
  MBC: 0.014 µM/mL
  MIC: 0.014 µM/mL
A. israeli ATCC 10049; A. israeli ATCC 10049
  MBC: 15.6 µg/mL
  MIC: 7.8 µg/mL
A. israeli ATCC 10049; [7]
  MBC: 0.014 µM/mL
  MIC: 0.007 µM/mL
E. faecalis ATCC 29212; E. faecalis ATCC 29212
  MBC: 62.5 µg/mL
  MIC: 31.3 µg/mL
E. faecalis ATCC 29212; [8]
  MBC: 0.06 µM/mL
  MIC: 0.03 µM/mL
[2]; S. typhimurium ATCC 14028
  MBC: 62.5 µg/mL
  MIC: 15.6 µg/mL
[2]; [9]
  MBC: 0.06 µM/mL
  MIC: 0.014 µM/mL
B. fragilis ATCC 10240; B. fragilis ATCC 10240
  MBC: 0.98 µg/mL
  MIC: 0.24 µg/mL
B. fragilis ATCC 10240; [10]
  MBC: 0.0009 µM/mL
  MIC: 0.0002 µM/mL
HepG2 cells [3]; Figure 6
  lowest concentration with significant (p ≤ 0.05) effect: 5.0 µM
P. aeruginosa ATCC 9027; P. aeruginosa ATCC 9027
  MBC: 15.6 µg/mL
  MIC: 7.8 µg/mL
P. aeruginosa ATCC 9027; [11]
  MBC: 0.014 µM/mL
  MIC: 0.008 µM/mL
P. intermedia ATCC 25611; P. intermedia ATCC 25611
  MBC: 15.6 µg/mL
  MIC: 0.98 µg/mL
P. intermedia ATCC 25611; [12]
  MBC: 0.014 µM/mL
  MIC: 0.0009 µM/mL
E. coli ATCC 25922; E. coli ATCC 25922
  MBC: 31.3 µg/mL
  MIC: 15.6 µg/mL
E. coli ATCC 25922; [13]
  MBC: 0.03 µM/mL
  MIC: 0.014 µM/mL
M. luteus ATCC 10240; M. luteus ATCC 10240
  MIC: 7.8 µg/mL
M. luteus ATCC 10240; [14]
  MBC: 0.12 µM/mL
  MIC: 0.007 µM/mL
HepG2 cells [4]; Figure 6
  lowest concentration with significant (p ≤ 0.05) effect: 5.0 µM
V. parvula ATCC 10790; V. parvula ATCC 10790
  MBC: 3.9 µg/mL
  MIC: 3.9 µg/mL
V. parvula ATCC 10790; [15]
  MBC: 0.004 µM/mL
  MIC: 0.004 µM/mL
B. cereus ATCC 10876; B. cereus ATCC 10876
  MIC: 62.5 µg/mL
B. cereus ATCC 10876; [16]
  MBC: 0.12 µM/mL
  MIC: 0.06 µM/mL
